Assay results taken from the supplement of paper PMC10307832.

Assays:
Test in all cases: relative viability (nuclei count vs DMSO), 5 days (fraction); higher = more cells survive
MIM1 = compound: CC1=CSC(=NC2CCCCC2)N1/N=C/C3=C(C(=C(C=C3)O)O)O [MIM1]
In short: (§1)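 Lung cancer cell lines in 1536-well plates were kept overnight at 37 °C, then pinned with five library-drug doses (not always all listed) spaced by √10 on vehicle-anchored plates. After 5 days without medium change, cells were fixed, permeabilised and Hoechst-stained in one step, imaged at 4×, and nuclei were counted with MetaXpress. Viability is treated-well nuclei divided by vehicle-well nuclei, taken as the median over plates. Plates passed only with control CV below 25% and at least one doubling.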

Luminespib = compound: CCNC(=O)c1noc(-c2cc(C(C)C)c(O)cc2O)c1-c1ccc(CN2CCOCC2)cc1 [Luminespib]
In short: as §1

Saracatinib = compound: CN1CCN(CCOc2cc(OC3CCOCC3)c3c(Nc4c(Cl)ccc5c4OCO5)ncnc3c2)CC1 [Saracatinib]
In short: as §1

Nilotinib = compound: Cc1cn(-c2cc(NC(=O)c3ccc(C)c(Nc4nccc(-c5cccnc5)n4)c3)cc(C(F)(F)F)c2)cn1 [Nilotinib]
In short: as §1

Lenalidomide = compound: Nc1cccc2c1CN(C1CCC(=O)NC1=O)C2=O [Lenalidomide]
In short: as §1

Cell Line | relative viability (MIM1; 0.2 µM) | relative viability (MIM1; 0.6325 µM) | relative viability (MIM1; 2 µM) | relative viability (MIM1; 6.325 µM) | relative viability (MIM1; 20 µM) | relative viability (Luminespib; 0.002 µM) | relative viability (Luminespib; 0.006325 µM) | relative viability (Luminespib; 0.01 µM, anchor plate) | relative viability (Luminespib; 0.02 µM) | relative viability (Luminespib; 0.06325 µM) | relative viability (Luminespib; 0.2 µM) | relative viability (Saracatinib; 0.02 µM) | relative viability (Saracatinib; 0.2 µM) | relative viability (Saracatinib; 0.6325 µM) | relative viability (Saracatinib; 2 µM) | relative viability (Nilotinib; 0.001 µM) | relative viability (Nilotinib; 0.003162 µM) | relative viability (Nilotinib; 0.01 µM) | relative viability (Nilotinib; 0.03162 µM) | relative viability (Nilotinib; 0.1 µM) | relative viability (Lenalidomide; 0.253 µM) | relative viability (Lenalidomide; 0.8 µM) | relative viability (Lenalidomide; 2.53 µM) | relative viability (Lenalidomide; 8 µM)
LU99A | 0.995 | 0.909 | 0.949 | 0.802 | 0.323 | 1.05 | 0.94 | 0.247 | 0.508 | 0.241 | 0.124 | 0.983 | 0.86 | 0.853 | 0.757 | 0.892 | 1.02 | 0.919 | 0.831 | 0.558 | 0.919 | 0.902 | 1.05 | 0.601
LXF-289 | 1.04 | 0.741 | 1.04 | 0.737 | 0.503 | 0.974 | 0.979 | 0.681 | 1.09 | 0.85 | 0.195 | 0.997 | 0.944 | 1.02 | 1.01 | 0.937 | 1.19 | 1.15 | 0.96 | 0.576 | 0.981 | 1.03 | 1.11 | 1.07
NCI-H23 | 0.99 | 0.52 | 0.798 | 0.523 | 0.209 | 0.953 | 0.932 | 0.22 | 0.663 | 0.13 | 0.141 | 1.12 | 0.794 | 0.988 | 0.739 | 0.963 | 0.899 | 1.15 | 0.668 | 0.74 | 0.922 | 0.91 | 1.18 | 0.764
NCI-H322M | 0.964 | 0.895 | 0.906 | 0.826 | 0.522 | 0.921 | 0.883 | 0.918 | 0.764 | 0.426 | 0.318 | 0.969 | 0.886 | 0.696 | 0.365 | 1.03 | 0.962 |  | 1.06 | 1.05 | 0.97 | 0.953 | 1.02 | 0.918
NCI-H358 | 1.01 | 0.953 | 0.86 | 0.429 | 0.237 | 0.966 | 0.887 | 0.352 | 0.512 | 0.115 | 0.111 | 0.938 | 0.822 | 0.568 | 0.409 | 0.831 | 1.18 | 1.12 | 0.836 | 0.776 | 0.908 | 1.01 | 0.893 | 1.08
NCI-H441 | 1.04 | 0.754 | 0.994 | 0.492 | 0.207 | 0.93 | 1.01 | 0.345 | 0.926 | 0.133 | 0.129 | 0.99 | 0.896 | 1.23 | 0.884 | 0.927 | 1.4 | 1.21 | 0.724 | 0.938 | 0.967 | 0.869 | 1.21 | 0.808
NCI-H460 | 0.988 | 0.994 | 0.827 | 0.45 | 0.124 | 1.02 | 0.952 | 0.0332 | 0.806 | 0.0356 | 0.0297 | 0.998 | 0.82 | 0.976 | 0.877 | 0.924 | 1.21 | 1.12 | 0.78 | 0.857 | 0.984 | 0.956 | 1.04 | 1
